The numbers were not newly measured in US20050181036A1 (Research Development Foundation, priority 2003, published 2005), which cites them from elsewhere.

Structures are written as SMILES. “Also recorded” adds a separate entry of the source.

For `COc1cc(/C=C/C(=O)CC(=O)/C=C/c2ccc(O)c(OC)c2)ccc1O` [Curcumin, diferuloylmethane], where the note is “dimethylsulfoxide”, the solubility in dimethylsulfoxide entry is “soluble”. In addition, the solubility in ethanol entry (ethanol) is reported as “soluble”. The solubility in ether entry (ether) is listed as “insoluble”. Also, the solubility in water entry (water) was “insoluble; also recorded: not water-soluble”.
